Several values for one entry are separate records, joined by “and”; a condition that tells them apart may be missing. Identical values can stand only once. Counter-ions that a name gives are not always drawn.
How the values were obtained:
[1] = biological target: T1, human RORγt ligand binding domain (RORγt LBD) (Homo sapiens, UniProt P51449); assay: RORγt ThermoFluor assay (ligand binding affinity from protein thermal stability)
T1 construct: His-tag (N); TurboTEV protease cleavage site (ENLYFQG) (N); made in house; host or cells: E. coli (pHIS1, modified pET vector)
T1 sequence (P51449 with tags, fused parts or gaps): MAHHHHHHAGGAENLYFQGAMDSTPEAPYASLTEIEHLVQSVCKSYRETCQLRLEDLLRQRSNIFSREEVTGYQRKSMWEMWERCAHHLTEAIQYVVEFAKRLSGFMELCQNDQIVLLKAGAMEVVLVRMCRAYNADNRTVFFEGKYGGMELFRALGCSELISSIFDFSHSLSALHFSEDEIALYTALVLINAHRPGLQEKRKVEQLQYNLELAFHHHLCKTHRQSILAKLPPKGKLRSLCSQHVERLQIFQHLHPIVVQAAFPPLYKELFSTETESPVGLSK
Protocol: This approach is applicable to a wide variety of systems, and rigorous in theoretical interpretation through quantitation of equilibrium binding constants (KD).
The shift in the melting point described as a ΔTm is proportional to the concentration and affinity of the ligand.
RORγt ThermoFluor® Assay Construct
Protein and compound solutions are dispensed into black 384-well polypropylene PCR microplates (Abgene) and overlayed with silicone oil (1 μL, Fluka, type DC 200) to prevent evaporation.
Bar-coded assay plates are robotically loaded onto a thermostatically controlled PCR-type thermal block and then heated at a typical ramp-rate of 1° C./min for all experiments. Fluorescence was measured by continuous illumination with UV light (Hamamatsu LC6) supplied via fiber optic and filtered through a band-pass filter (380-400 nm; >6 OD cutoff). Fluorescence emission of the entire 384-well plate was detected by measuring light intensity using a CCD camera (Sensys, Roper Scientific) filtered to detect 500±25 nm, resulting in simultaneous and independent readings of all 384 wells. Images were collected at each temperature, and the sum of the pixel intensity in a given area of the assay plate was recorded versus temperature. Reference wells contained RORγt without compounds, and the assay conditions were as follows: • 0.065 mg/mL RORγt • 60 μM 1,8-ANS • 100 mM Hepes, pH 7.0 • 10 mM NaCl • 2.5 mM GSH • 0.002% Tween-20
Project compounds were arranged in a pre-dosed mother plate (Greiner Bio-one) wherein compounds are serially diluted in 100% DMSO by 1:2 from a high concentration of 10 mM over 12 columns within a series (column 12 is a reference well containing DMSO, no compound). The compounds were robotically dispensed directly into assay plates (1×=[…]) using a Hummingbird capillary liquid handling instrument (Digilab). Following compound dispense, protein and dye in buffer was added to achieve the final assay volume of 3 μL, followed by 1 μL of silicone oil.

human RORγt LBD = biological target: T2, human RORγt LBD (Homo sapiens, UniProt P51449); assay: RORγt (LBD) reporter assay in HEK293T cells; format: cell-based; settings: for inhibition at 6 µM: HEK-293T, read-out: RORγt (LBD) Reporter Assay, % inhibition @ 6 μM, 6 μM compound; for RORγt (LBD) Reporter Assay, % inhibition @ 6 μM: 6 μM compound
T2 construct: expressed in transfected cells; host or cells: HEK293T
T2 sequence (P51449 258-518): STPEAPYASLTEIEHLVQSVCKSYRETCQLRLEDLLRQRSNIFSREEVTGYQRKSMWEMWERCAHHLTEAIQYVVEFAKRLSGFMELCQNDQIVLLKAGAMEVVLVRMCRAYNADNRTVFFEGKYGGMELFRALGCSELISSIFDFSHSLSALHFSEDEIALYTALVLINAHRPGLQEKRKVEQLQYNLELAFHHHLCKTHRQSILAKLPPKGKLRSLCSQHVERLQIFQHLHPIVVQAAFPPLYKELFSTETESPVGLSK
From the text: RORγt (LBD) Reporter Assay
Cells used in the assay were co-transfected with two constructs. The first construct, pBIND-RORγt LBD, contained the wild type human RORγt LBD fused to the DNA binding domain of the GAL4 protein. The second construct, pGL4.31 (Promega Cat no. C935A), contained multiple GAL4 responsive DNA elements upstream of firefly luciferase. […] The mutant construct was called pBIND-RORγt-AF2.
The pBIND vector contains the GAL4 DNA Binding Domain (GAL4 DBD) and the renilla luciferase gene under control of the SV40 promoter. Renilla luciferase expression serves as a control for transfection efficiency and cell viability.
The reporter assay was performed by transiently transfecting HEK293T cells with 5 μg of pBIND-RORγt LBD or pBIND-RORγt LBD-AF2 and 5 μg pGL4.31 (Promega Cat no. C935A) using Fugene 6 (Invitrogen Cat no. E2691) at a 1:6 ratio of DNA:Fugene 6 in a T-75 flask in which cells were at least 80% confluent. Twenty four hours after bulk transfection, cells were plated into 96-well plates at 50,000 cells/well in phenol-red free DMEM containing 5% Lipid Reduced FCS and Pen/Strep. Six hours after plating, cells were treated with compounds for 24 hours. Media was removed and cells were lysed with 50 μL 1× Glo Lysis Buffer (Promega). Dual Glo Luciferase Reagent (50 μL/well) was then added and firefly luciferase luminescence was read on an Envision after a ten minute incubation. Finally, Stop and Glo reagent (50 μL/well) was added and renilla luciferase luminescence was read on an Envision after a ten minute incubation. […] Agonist compounds increase RORγt-driven luciferase expression, and antagonist or inverse agonist compounds decrease luciferase expression.

Compound | Kd [1] | IC50 (human RORγt LBD) | inhibition at 6 µM (human RORγt LBD) | RORγt (LBD) Reporter Assay, % inhibition @ 6 μM (human RORγt LBD)
COc1nc2ccc(C(O)(c3ccc(Cl)cc3)c3cncn3C)cc2c(Cl)c1Cc1ccc(C(F)(F)F)nc1 (single isomer, unassigned) [Example 39b] | 1100 nM | 1200 nM | 86% | 
COc1nc2ccc(C(O)(c3ccc(C)nc3C)c3cnnn3C)cc2c(C#N)c1Cc1ccc(F)cc1 (single isomer, unassigned) [Example 49b, 6-((2,6-Dimethylpyridin-3-yl)(hydroxy)(1-methyl-1H-1,2,3-triazol-5-yl)methyl)-3-(4-fluorobenzyl)-2-methoxyquinoline-4-carbonitrile] | 410 nM | ~3000 nM |  | 62%
COc1c(Cc2ccccc2)c(C(F)(F)F)nc2ccc(C(O)(c3ccc(Cl)cc3)c3cncn3C)cc12 (single isomer, unassigned) [Example 101c, (3-Benzyl-4-methoxy-2-(trifluoromethyl)quinolin-6-yl)(4-chlorophenyl)(1-methyl-1H-imidazol-5-yl)methanol] |  |  |  | 89%
Cn1cncc1C(O)(c1ccc(C(F)(F)F)nc1)c1ccc2nc(-c3nccn3C)c(Cc3ccccc3)c(Cl)c2c1 (single isomer, unassigned) [Example 113c, (3-Benzyl-4-chloro-2-(1-methyl-1H-imidazol-2-yl)quinolin-6-yl)(1-methyl-1H-imidazol-5-yl)(6-(trifluoromethyl)pyridin-3-yl)methanol•TFA] | 1200 nM | ~2000 nM |  | 
Cn1cncc1C(O)(c1ccc(C(F)(F)F)nc1)c1ccc2nc(-n3cccn3)c(Cc3ccccc3)c(C#N)c2c1 (single isomer, unassigned) [Example 114c, 3-Benzyl-6-(hydroxy(1-methyl-1H-imidazol-5-yl)(6-(trifluoromethyl)pyridin-3-yl)methyl)-2-(1H-pyrazol-1-yl)quinoline-4-carbonitrile•TFA] | 710 nM | 1900 nM |  | 
COc1nc2ccc(C(N)(c3ccc(C(F)(F)F)nc3)c3cncn3C)cc2c(Cl)c1Cc1ccccc1 (single isomer, unassigned) [Example 120c, (3-Benzyl-4-chloro-2-methoxyquinolin-6-yl)(1-methyl-1H-imidazol-5-yl)(6-(trifluoromethyl)pyridin-3-yl)methanamine•TFA] | 1100 nM | ~6000 nM |  | 
CCN(CC)c1nc2ccc(C(O)(c3ccc(Cl)cc3)c3cncn3C)cc2c(C#N)c1Cc1ccc(-n2cccn2)cc1 (single isomer, unassigned) [Example 154b, 3-(4-(1H-pyrazol-1-yl)benzyl)-6-((4-chlorophenyl)(hydroxy)(1-methyl-1H-imidazol-5-yl)methyl)-2-(diethylamino)quinoline-4-carbonitrile] |  |  | 101% | 
CCN(CC)c1nc2ccc(C(O)(c3ccc(Cl)cc3)c3cncn3C)cc2c(C#N)c1Cc1ccc(-n2cccn2)cc1 (single isomer, unassigned) [Example 154c, 3-(4-(1H-pyrazol-1-yl)benzyl)-6-((4-chlorophenyl)(hydroxy)(1-methyl-1H-imidazol-5-yl)methyl)-2-(diethylamino)quinoline-4-carbonitrile] |  |  | 73% | 
COc1c(Cc2ccccc2)c(C(F)(F)F)nc2ccc(C(O)(c3ccc(C(F)(F)F)nc3)c3cncn3C)cc12 (centres unmarked) [Example 106a, (3-Benzyl-4-methoxy-2-(trifluoromethyl)quinolin-6-yl)(1-methyl-1H-imidazol-5-yl)(6-(trifluoromethyl)pyridin-3-yl)methanol•TFA] |  | ~4000 nM |  | 

Further lines, results first:

Kd [1] | IC50 (human RORγt LBD) | inhibition at 6 µM (human RORγt LBD) | RORγt (LBD) Reporter Assay, % inhibition @ 6 μM (human RORγt LBD) | Compound
250 nM | ~6000 nM | 53% |  | COc1nc2ccc(C(O)(c3ccc(C)nc3C)c3cnnn3C)cc2c(Cl)c1Cc1ccc(F)cc1 (single isomer, unassigned) [Example 48b, (4-Chloro-3-(4-fluorobenzyl)-2-methoxyquinolin-6-yl)(2,6-dimethylpyridin-3-yl)(1-methyl-1H-1,2,3-triazol-5-yl)methanol]
2.7 nM | 38 nM and ~20 nM |  | 83% | COc1nc2ccc(C(O)(c3ccc(C)nc3C)c3cnnn3C)cc2c(C#N)c1Cc1ccc(F)cc1 (single isomer, unassigned) [Example 49c, 6-((2,6-Dimethylpyridin-3-yl)(hydroxy)(1-methyl-1H-1,2,3-triazol-5-yl)methyl)-3-(4-fluorobenzyl)-2-methoxyquinoline-4-carbonitrile]
0.095 nM | 22 nM | 74% |  | COc1nc2ccc(C(O)(c3cnnn3C)c3cnc(C)n3C)cc2c(Cl)c1Cc1ccc(F)cc1 (single isomer, unassigned) [Example 65b]
0.48 nM | 7.2 nM |  |  | COc1nc2ccc(C(O)(c3cnnn3C)c3cnc(C)n3C)cc2c(Cl)c1Cc1ccc(F)cc1 (single isomer, unassigned) [Example 65c]
120 nM | 1400 nM |  |  | Cn1cncc1C(O)(c1ccc(C(F)(F)F)nc1)c1ccc2nc(-n3cccn3)c(Cc3ccccc3)c(C#N)c2c1 (single isomer, unassigned) [Example 114b, 3-Benzyl-6-(hydroxy(1-methyl-1H-imidazol-5-yl)(6-(trifluoromethyl)pyridin-3-yl)methyl)-2-(1H-pyrazol-1-yl)quinoline-4-carbonitrile•TFA]
58 nM | 480 nM |  |  | CC(=O)N1CCC(C(O)(c2ccc3nc(C(F)(F)F)c(Cc4ccccc4)c(Cl)c3c2)c2cncn2C)CC1 (single isomer, unassigned) [Example 115b, 1-(4-((3-Benzyl-4-chloro-2-(trifluoromethyl)quinolin-6-yl)(hydroxy)(1-methyl-1H-imidazol-5-yl)methyl)piperidin-1-yl)ethanone•TFA]
17 nM | 110 nM |  |  | CC(=O)N1CCC(C(O)(c2ccc3nc(C(F)(F)F)c(Cc4ccccc4)c(Cl)c3c2)c2cncn2C)CC1 (single isomer, unassigned) [Example 115c, 1-(4-((3-Benzyl-4-chloro-2-(trifluoromethyl)quinolin-6-yl)(hydroxy)(1-methyl-1H-imidazol-5-yl)methyl)piperidin-1-yl)ethanone•TFA]
130 nM | > 6000 nM |  |  | COc1nc2ccc(C(N)(c3ccc(C(F)(F)F)nc3)c3cncn3C)cc2c(Cl)c1Cc1ccccc1 (single isomer, unassigned) [Example 120b, (3-Benzyl-4-chloro-2-methoxyquinolin-6-yl)(1-methyl-1H-imidazol-5-yl)(6-(trifluoromethyl)pyridin-3-yl)methanamine•TFA]
